Experimental data taken from patent US9650339B2, “Inhibitors of histone demethylases” (Gilead Sciences, Inc., priority 2013, dated 2017).

Columns and labels:
Format in all cases: biochemical
KDM3B (JMJD1B) = target: T1, KDM3B (JMJD1B) (Homo sapiens, UniProt Q7LBC6); assay: Histone lysine demethylase AlphaLISA assay, KDM3B; conditions: read-out: KDM3B HDME Inhibition IC50
T1 construct: 842-1761; host or cells: Bac (baculovirus system)
T1 sequence (Q7LBC6 842-1761): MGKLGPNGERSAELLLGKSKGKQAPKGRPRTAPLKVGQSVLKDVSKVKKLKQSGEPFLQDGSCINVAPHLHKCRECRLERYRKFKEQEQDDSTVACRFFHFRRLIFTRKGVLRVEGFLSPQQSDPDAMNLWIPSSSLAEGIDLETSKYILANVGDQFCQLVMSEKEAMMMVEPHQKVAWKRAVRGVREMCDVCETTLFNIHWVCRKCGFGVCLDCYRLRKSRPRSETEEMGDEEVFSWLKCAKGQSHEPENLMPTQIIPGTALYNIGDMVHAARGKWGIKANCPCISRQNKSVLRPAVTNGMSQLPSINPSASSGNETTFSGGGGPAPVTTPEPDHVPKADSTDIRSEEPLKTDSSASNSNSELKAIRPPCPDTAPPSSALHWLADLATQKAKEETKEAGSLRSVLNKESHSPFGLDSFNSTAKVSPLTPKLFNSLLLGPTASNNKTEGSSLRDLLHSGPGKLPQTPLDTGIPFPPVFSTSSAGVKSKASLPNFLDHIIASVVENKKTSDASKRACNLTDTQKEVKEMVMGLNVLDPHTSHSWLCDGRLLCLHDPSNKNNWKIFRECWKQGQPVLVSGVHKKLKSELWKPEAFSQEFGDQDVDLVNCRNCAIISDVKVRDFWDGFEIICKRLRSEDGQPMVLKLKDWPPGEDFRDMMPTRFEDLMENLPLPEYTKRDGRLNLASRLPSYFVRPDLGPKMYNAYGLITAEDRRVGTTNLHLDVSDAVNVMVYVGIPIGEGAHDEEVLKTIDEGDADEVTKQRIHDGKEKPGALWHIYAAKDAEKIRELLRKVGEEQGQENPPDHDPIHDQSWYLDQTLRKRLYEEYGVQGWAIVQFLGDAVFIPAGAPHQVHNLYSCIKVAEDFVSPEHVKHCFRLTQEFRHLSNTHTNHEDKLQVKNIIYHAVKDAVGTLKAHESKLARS
Description: (§1) Assays are performed analogously to the protocol described by PerkinElmer (Roy et al. PerkinElmer Technical Note: AlphaLISA #12, April 2011)
(§2) Enzymes are dissolved in enzyme buffer and incubated for 10 min before being added to 3% DMSO solutions of compounds in enzyme buffer. Incubated for another 10 minutes, before substrate solution is added and the reaction mixture is incubated at room temperature. 10 μL acceptor beads, suspended in Epigenetic Buffer (Perkin Elmer AL008) from stock, are added and the suspension is incubated in the dark at room temperature, before a suspension of streptavidin donor beads (Perkin Elmer 6760002) in Epigenetic Buffer is added. After incubation at room temperature in the dark the plates are read. […]
(§3) BK9M2: Biotin-ARTKQTAR(KMe2)STGGKAPRKQ-NH2 (AnaSpec 64359) […]
(§4) Substrate Solution: Substrate, 25 μM L-Asc, and 10 μM α-KG in Buffer A.

KDM5C (JARID1C) = target: T2, KDM5C (JARID1C) (Homo sapiens, UniProt P41229); assay: Histone lysine demethylase AlphaLISA assay, KDM5C; conditions: read-out: KDM5C HDME Inhibition IC50
T2 construct: 2-1560; purchased BPS; host or cells: Bac (baculovirus system)
Description: as §1, §2
H3K4M3B: H-ART(Kme3)QTARKSTGGKAPRKQLA-NH-Biotin (Caslo, Denmark) […]
as §4

KDM3A (JMJD1A) = target: T3, KDM3A (JMJD1A) (Homo sapiens, UniProt Q9Y4C1); assay: Histone lysine demethylase AlphaLISA assay, KDM3A; conditions: read-out: KDM3 A HDME Inhibition IC50
T3 construct: 2-end; purchased BPS Bioscience, US; host or cells: Bac (baculovirus system)
T3 sequence (Q9Y4C1 2-1321 limits assumed): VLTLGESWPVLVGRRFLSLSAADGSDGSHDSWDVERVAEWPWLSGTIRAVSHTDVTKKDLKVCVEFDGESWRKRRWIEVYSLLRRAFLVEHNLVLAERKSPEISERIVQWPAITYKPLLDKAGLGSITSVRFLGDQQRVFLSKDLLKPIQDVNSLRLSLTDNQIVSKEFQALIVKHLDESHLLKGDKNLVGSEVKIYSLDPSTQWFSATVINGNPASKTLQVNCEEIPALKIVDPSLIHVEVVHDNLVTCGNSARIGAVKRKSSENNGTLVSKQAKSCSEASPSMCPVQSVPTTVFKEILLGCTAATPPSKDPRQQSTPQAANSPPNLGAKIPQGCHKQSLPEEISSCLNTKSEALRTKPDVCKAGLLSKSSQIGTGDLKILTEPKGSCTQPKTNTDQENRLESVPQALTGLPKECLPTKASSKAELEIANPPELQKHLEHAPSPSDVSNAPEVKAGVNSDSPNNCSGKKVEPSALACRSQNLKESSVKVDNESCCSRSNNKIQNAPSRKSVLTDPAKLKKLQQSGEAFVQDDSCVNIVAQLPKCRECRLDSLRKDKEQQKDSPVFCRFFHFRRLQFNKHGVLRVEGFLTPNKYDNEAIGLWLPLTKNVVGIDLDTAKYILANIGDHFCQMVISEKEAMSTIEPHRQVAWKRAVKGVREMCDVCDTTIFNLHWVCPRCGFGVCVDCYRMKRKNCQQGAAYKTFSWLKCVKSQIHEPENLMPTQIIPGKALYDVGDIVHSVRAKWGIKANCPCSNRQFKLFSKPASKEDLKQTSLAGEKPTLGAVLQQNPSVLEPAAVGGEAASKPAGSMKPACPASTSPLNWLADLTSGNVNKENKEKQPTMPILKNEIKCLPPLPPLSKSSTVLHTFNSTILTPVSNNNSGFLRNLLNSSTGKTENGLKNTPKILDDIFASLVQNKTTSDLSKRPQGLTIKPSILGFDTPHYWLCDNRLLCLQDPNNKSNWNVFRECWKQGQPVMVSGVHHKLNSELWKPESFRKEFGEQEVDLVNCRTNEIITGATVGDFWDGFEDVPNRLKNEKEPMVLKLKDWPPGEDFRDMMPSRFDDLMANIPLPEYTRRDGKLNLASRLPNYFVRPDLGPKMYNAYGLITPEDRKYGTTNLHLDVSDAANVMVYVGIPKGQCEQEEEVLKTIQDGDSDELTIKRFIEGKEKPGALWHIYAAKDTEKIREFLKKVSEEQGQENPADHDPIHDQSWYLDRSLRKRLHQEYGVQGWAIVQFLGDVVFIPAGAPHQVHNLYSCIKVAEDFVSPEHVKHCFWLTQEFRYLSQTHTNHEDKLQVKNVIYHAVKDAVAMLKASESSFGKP
Description: as §1, §2, §3, §4

T2 sequence (P41229 2-1560): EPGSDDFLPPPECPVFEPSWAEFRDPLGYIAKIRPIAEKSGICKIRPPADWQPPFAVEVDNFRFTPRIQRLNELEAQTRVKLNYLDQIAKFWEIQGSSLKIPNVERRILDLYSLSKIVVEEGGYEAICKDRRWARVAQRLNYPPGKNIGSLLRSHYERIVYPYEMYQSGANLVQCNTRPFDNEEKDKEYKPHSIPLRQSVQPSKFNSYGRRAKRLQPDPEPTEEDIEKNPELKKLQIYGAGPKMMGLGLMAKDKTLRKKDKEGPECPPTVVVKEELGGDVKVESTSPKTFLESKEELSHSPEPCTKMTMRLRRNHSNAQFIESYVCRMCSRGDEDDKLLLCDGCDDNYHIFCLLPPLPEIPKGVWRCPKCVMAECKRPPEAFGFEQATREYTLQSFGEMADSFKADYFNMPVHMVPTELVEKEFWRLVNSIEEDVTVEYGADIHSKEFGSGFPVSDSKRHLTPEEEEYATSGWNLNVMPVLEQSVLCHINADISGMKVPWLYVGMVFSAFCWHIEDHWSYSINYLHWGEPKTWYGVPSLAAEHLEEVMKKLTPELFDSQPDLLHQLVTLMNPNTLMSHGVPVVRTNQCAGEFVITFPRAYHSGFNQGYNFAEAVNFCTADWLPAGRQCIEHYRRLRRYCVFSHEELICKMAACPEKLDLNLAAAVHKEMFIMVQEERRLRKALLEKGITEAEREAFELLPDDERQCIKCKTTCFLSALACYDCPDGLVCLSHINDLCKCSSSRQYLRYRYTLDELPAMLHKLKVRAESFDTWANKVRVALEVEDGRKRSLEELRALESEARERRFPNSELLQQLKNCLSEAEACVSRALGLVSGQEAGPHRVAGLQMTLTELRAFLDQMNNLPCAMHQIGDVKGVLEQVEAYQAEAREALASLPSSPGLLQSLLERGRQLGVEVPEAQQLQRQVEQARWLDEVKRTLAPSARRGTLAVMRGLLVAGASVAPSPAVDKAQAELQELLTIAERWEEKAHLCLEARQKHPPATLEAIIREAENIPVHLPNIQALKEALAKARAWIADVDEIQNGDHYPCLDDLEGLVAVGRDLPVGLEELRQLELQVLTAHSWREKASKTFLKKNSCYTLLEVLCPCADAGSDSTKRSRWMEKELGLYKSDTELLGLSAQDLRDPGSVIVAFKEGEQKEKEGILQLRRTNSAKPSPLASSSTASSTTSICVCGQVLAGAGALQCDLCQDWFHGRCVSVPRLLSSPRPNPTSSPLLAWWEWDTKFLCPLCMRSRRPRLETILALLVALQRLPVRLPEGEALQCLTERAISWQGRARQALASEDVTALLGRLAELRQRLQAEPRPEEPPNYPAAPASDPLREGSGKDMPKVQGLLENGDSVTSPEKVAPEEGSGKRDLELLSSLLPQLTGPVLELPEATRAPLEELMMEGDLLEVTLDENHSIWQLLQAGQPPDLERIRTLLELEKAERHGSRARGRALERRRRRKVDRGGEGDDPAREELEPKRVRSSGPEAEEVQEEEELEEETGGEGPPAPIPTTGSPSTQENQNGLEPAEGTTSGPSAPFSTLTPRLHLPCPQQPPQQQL

For `CCN(CCC#N)C(=O)CNCc1cc(/C=N/C2CC2)ccn1` [Compound 50, N-(2-cyanoethyl)-2-[({4-[N-cyclopropyl-carboximidoyl]-pyridin-2-yl}methyl)amino]-N-ethylacetamide], the IC50 (KDM3B (JMJD1B)) was over 2500 nM, the IC50 (KDM5C (JARID1C)) was under 250 nM and the IC50 (KDM3A (JMJD1A)) was over 2500 nM.

In the case of `CCN1CCCC1CNC(=O)CNCc1cc(/C=N/C2CC2)ccn1` (stereo not drawn) [Compound 51, 2-[({4-[N-cyclopropyl-carboximidoyl]-pyridin-2-yl}methyl)-amino]-N-[(1-ethylpyrrolidin-2-yl)methyl]acetamide], the IC50 (KDM3B (JMJD1B)) is reported as over 2500 nM, the IC50 (KDM5C (JARID1C)) is reported as under 250 nM and the IC50 (KDM3A (JMJD1A)) is reported as over 2500 nM.

For `CN(CCCn1cccn1)C(=O)CNCc1cc(/C=N/C2CC2)ccn1` [Compound 52, 2-[({4-[N-cyclopropyl-carboximidoyl]-pyridin-2-yl}methyl)amino]-N-methyl-N-[3-(1H-pyrazol-1-yl)propyl]acetamide], the IC50 (KDM3B (JMJD1B)) was over 2500 nM, the IC50 (KDM5C (JARID1C)) was under 250 nM and the IC50 (KDM3A (JMJD1A)) was over 2500 nM.

Molecule `O=C(CNCc1cc(/C=N/C2CC2)ccn1)NC1CCN(Cc2ccccc2)C1` (stereo not drawn) [Compound 53, N-(1-benzylpyrrolidin-3-yl)-2-[({4-[N-cyclopropyl-carboximidoyl]pyridin-2-yl}methyl)amino]-acetamide] has an IC50 (KDM3B (JMJD1B)) of over 2500 nM, an IC50 (KDM5C (JARID1C)) of under 250 nM and an IC50 (KDM3A (JMJD1A)) of 250 to 2500 nM.

`CN1CCN(C(=O)CNCc2cc(/C=N/C3CC3)ccn2)CC1` [Compound 54, 2-[({4-[N-cyclopropyl-carboximidoyl]-pyridin-2-yl}methyl)amino]-1-(4-methylpiperazin-1-yl)ethan-1-one] showed an IC50 (KDM3B (JMJD1B)) of 250 to 2500 nM, an IC50 (KDM5C (JARID1C)) of under 250 nM and an IC50 (KDM3A (JMJD1A)) of over 2500 nM.

For `O=C(CNCc1cc(/C=N/C2CC2)ccn1)N1CCC(Cc2ccccc2)CC1` [Compound 55, 1-(4-benzylpiperidin-1-yl)-2-[({4-[N-cyclopropyl-carboximidoyl]-pyridin-2-yl}methyl)amino]-ethan-1-one], the IC50 (KDM3B (JMJD1B)) was over 2500 nM, the IC50 (KDM5C (JARID1C)) was 250 to 2500 nM and the IC50 (KDM3A (JMJD1A)) was over 2500 nM.

`C#CCN(C)C(=O)CNCc1cc(/C=N/C2CC2)ccn1` [Compound 56, 2-[({4-[N-cyclopropyl-carboximidoyl]-pyridin-2-yl}methyl)amino]-N-methyl-N-(prop-2-yn-1-yl)acetamide] was tested, and the IC50 (KDM3B (JMJD1B)) was over 2500 nM, the IC50 (KDM5C (JARID1C)) was 250 to 2500 nM and the IC50 (KDM3A (JMJD1A)) was over 2500 nM.

`CCN(CC)C(=O)CNCc1cc(/C=N/CCC2CCCCC2)ccn1` [Compound 57, 2-[({4-[[(2-cyclohexylethyl)imino]-methyl]pyridin-2-yl}methyl)amino]-N,N-diethylacetamide] gave an IC50 (KDM3B (JMJD1B)) of over 2500 nM, an IC50 (KDM5C (JARID1C)) of under 250 nM and an IC50 (KDM3A (JMJD1A)) of over 2500 nM.

`CCCCCCCC/N=C/c1ccnc(CNCC(=O)N(CC)CC)c1` [Compound 58, N,N-diethyl-2-[({4-[(octylimino)methyl]-pyridin-2-yl}methyl)amino]-acetamide] showed an IC50 (KDM3B (JMJD1B)) of over 2500 nM, an IC50 (KDM5C (JARID1C)) of under 250 nM and an IC50 (KDM3A (JMJD1A)) of over 2500 nM.

`CCN(CC)CCCCNCc1cc(/C=N/CCOC)ccn1` [Compound 60, [4-(diethylamino)butyl]-({4-[[(2-methoxyethyl)imino]-methyl]pyridin-2-yl}methyl)amine] was tested, and the IC50 (KDM3B (JMJD1B)) was over 2500 nM, the IC50 (KDM5C (JARID1C)) was under 250 nM and the IC50 (KDM3A (JMJD1A)) was over 2500 nM.

In the case of `CCN(CC)CCCCNCc1cc(/C=N/CCO)ccn1` [Compound 61, 2-[{[2-({[4-(diethylamino)-butyl]amino}-methyl)pyridin-4-yl]methylidene}-amino]ethan-1-ol], the IC50 (KDM3B (JMJD1B)) is reported as over 2500 nM, the IC50 (KDM5C (JARID1C)) is reported as under 250 nM and the IC50 (KDM3A (JMJD1A)) is reported as over 2500 nM.

With `CCN(CC)CCCCNCc1cc(/C=N/CC(F)(F)C(F)(F)F)ccn1` [Compound 62, {[2-({[4-(diethylamino)-butyl]amino}methyl)pyridin-4-yl]methylidene} (2,2,3,3,3-pentafluoropropyl)-amine] the IC50 (KDM3B (JMJD1B)) was over 2500 nM, the IC50 (KDM5C (JARID1C)) was under 250 nM and the IC50 (KDM3A (JMJD1A)) was over 2500 nM.

With `CON=Cc1ccnc(CNCCCN(C)C)c1` [Compound 64, [3-(dimethylamino)-propyl]({4-[(methoxyimino)-methyl]pyridin-2-yl}methyl)amine] the IC50 (KDM3B (JMJD1B)) was over 2500 nM, the IC50 (KDM5C (JARID1C)) was over 2500 nM and the IC50 (KDM3A (JMJD1A)) was over 2500 nM.
